# Experimental data from patent publication US20240238423A9, “TETRAHYDROISOQUINOLINE HETEROBIFUNCTIONAL BCL-XL DEGRADERS” (Treeline Biosciences, Inc., priority 2022, published 2024).
# Where two headings read alike, the source gives them in different places.
# Molecular target: T1, Human BCL-XL protein (N-terminal HiBiT tagged BCL-XL in HT1080 cells) (Homo sapiens, UniProt Q07817)
# T1 construct: expressed in transfected cells; host or cells: HT-1080 (ATCC CCL-121), stably transduced with lentivirus pLV-UBC-N-HiBiT-BCL-XL-PGK-puro and selected with puromycin
# T1 sequence (Q07817 whole entry): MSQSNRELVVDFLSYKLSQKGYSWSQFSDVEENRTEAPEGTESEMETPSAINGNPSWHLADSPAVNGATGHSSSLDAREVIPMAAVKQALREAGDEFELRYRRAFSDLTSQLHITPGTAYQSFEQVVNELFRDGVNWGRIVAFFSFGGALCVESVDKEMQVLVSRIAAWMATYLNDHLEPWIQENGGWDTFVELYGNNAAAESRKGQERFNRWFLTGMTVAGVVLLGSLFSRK
# Assay: HiBiT based degradation assay
# Format: cell-based
# Settings: HT1080 cells expressing HiBiT-BCL-XL; for Ymin (24 h) / Ymin (6 h): BCL-XL degradation normalized with DMSO control; for DC50: BCL-XL degradation
# In short: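 This HiBiT degradation assay measured loss of BCL-XL in HT1080 cells that stably express an N-terminal HiBiT-BCL-XL fusion delivered by lentivirus. Cells were added to compound-spotted 384-well plates, and luminescence was read on a PHERAstar FSX reader. Signal was expressed relative to DMSO controls, curves were fitted by four-parameter logistic regression, and for hook-shaped curves the Ymin point served as the bottom plateau when calculating EC50.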
Ymin (24 h),"DC50 (24 h, read-out: EC50 (24 h)) [µM]",Ymin (6 h),"DC50 (6 h, read-out: EC50 (6 h)) [µM]",Structure (SMILES)
B (50% ≤ Ymin < 70%),< 0.1,–,–,"Cc1c(OCC[C@@H]2CCCN(CC(=O)Nc3ccc4c(C5CCC(=O)NC5=O)nn(C)c4c3)C2)cccc1-c1ccc(N2CCc3cccc(C(=O)Nc4nc5ccccc5s4)c3C2)nc1C(=O)O (stereo partly drawn) [Compound 180a, 6-(8-(benzo[d]thiazol-2-ylcarbamoyl)-3,4-dihydroisoquinolin-2(1H)-yl)-3-(3-(2-((3S)-1-(2-((3-(2,6-dioxopiperidin-3-yl)-1-methyl-1H-indazol-6-yl)amino)-2-oxoethyl)piperidin-3-yl)ethoxy)-2-methylphenyl)picolinic acid]"
B (50% ≤ Ymin < 70%),< 0.1,–,–,"Cc1c(OCC[C@H]2CCCN(CC(=O)Nc3ccc4c(C5CCC(=O)NC5=O)nn(C)c4c3)C2)cccc1-c1ccc(N2CCc3cccc(C(=O)Nc4nc5ccccc5s4)c3C2)nc1C(=O)O (stereo partly drawn) [Compound 180b, 6-(8-(benzo[d]thiazol-2-ylcarbamoyl)-3,4-dihydroisoquinolin-2(1H)-yl)-3-(3-(2-((3R)-1-(2-((3-(2,6-dioxopiperidin-3-yl)-1-methyl-1H-indazol-6-yl)amino)-2-oxoethyl)piperidin-3-yl)ethoxy)-2-methylphenyl)picolinic acid]"
A (Ymin < 50%),< 0.1,–,–,"Cc1c(OCC(F)(F)CC2CCN(CC(=O)Nc3ccc4c(C5CCC(=O)NC5=O)nn(C)c4c3)CC2)cccc1-c1ccc(N2CCc3cccc(C(=O)Nc4nc5ccccc5s4)c3C2)nc1C(=O)O (stereo not shown) [Compound 181, 6-[8-(1,3-benzothiazol-2-ylcarbamoyl)-3,4-dihydro-1H-isoquinolin-2-yl]-3-[3-[3-[1-[2-[[3-(2,6-dioxo-3-piperidyl)-1-methyl-indazol-6-yl]amino]-2-oxo-ethyl]-4-piperidyl]-2,2-difluoro-propoxy]-2-methyl-phenyl]pyridine-2-carboxylic acid]"
B (50% ≤ Ymin < 70%),< 0.1,–,–,"Cc1c(O[C@H]2CC[C@H](CC(=O)N3CCN(c4cccc5c(C6CCC(=O)NC6=O)nn(C)c45)CC3)CC2)cccc1-c1ccc(N2CCc3cccc(C(=O)Nc4nc5ccccc5s4)c3C2)nc1C(=O)O (stereo partly shown) [Compound 182a, 6-(8-(benzo[d]thiazol-2-ylcarbamoyl)-3,4-dihydroisoquinolin-2(1H)-yl)-3-(3-(((1r,4r)-4-(2-(4-(3-(2,6-dioxopiperidin-3-yl)-1-methyl-1H-indazol-7-yl)piperazin-1-yl)-2-oxoethyl)cyclohexyl)oxy)-2-methylphenyl)picolinic acid]"
A (Ymin < 50%),< 0.1,B (50% ≤ Ymin < 70%),< 0.1,"Cc1cc(OCCCN2C[C@@H](C)N(CC(=O)N3CCN(c4cccc5c(C6CCC(=O)NC6=O)nn(C)c45)CC3)[C@@H](C)C2)ccc1-c1ccc(N2CCc3cccc(C(=O)Nc4nc5ccccc5s4)c3C2)nc1C(=O)O (stereo partly drawn) [Compound 183a, 6-[8-(1,3-benzothiazol-2-ylcarbamoyl)-3,4-dihydro-1H-isoquinolin-2-yl]-3-[4-[3-[(3S,5R)-4-[2-[4-[3-(2,6-dioxo-3-piperidyl)-1-methyl-indazol-7-yl]piperazin-1-yl]-2-oxo-ethyl]-3,5-dimethyl-piperazin-1-yl]propoxy]-2-methyl-phenyl]pyridine-2-carboxylic acid]"
A (Ymin < 50%),< 0.1,A (Ymin < 50%),< 0.1,"Cc1cc(OCCCC2CCN(CC(=O)Nc3ccc4c(C5CCC(=O)NC5=O)nn(C)c4c3)CC2)ccc1-c1ccc(N2CCc3cccc(C(=O)Nc4nc5ccccc5s4)c3C2)nc1C(=O)O (stereo not shown) [Compound 184, 6-[8-(1,3-benzothiazol-2-ylcarbamoyl)-3,4-dihydro-1H-isoquinolin-2-yl]-3-[4-[3-[1-[2-[[3-(2,6-dioxo-3-piperidyl)-1-methyl-indazol-6-yl]amino]-2-oxo-ethyl]-4-piperidyl]propoxy]-2-methyl-phenyl]pyridine-2-carboxylic acid]"
